In PubChem BioAssay (NCI):
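Interpolation was linear, between the two tested concentrations surrounding the appropriate level; five concentrations were tested over 48 hours in 96-well plates. At the TGI there is no net growth.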

Columns and labels:
Assay in all cases: growth of human tumour cells (NCI), 48 h
UACC-62 melanoma = tested on: UACC-62 melanoma
NCI-H522 lung = tested on: NCI-H522 lung
RPMI-8226 leukemia = tested on: RPMI-8226 leukemia
NCI-H23 lung = tested on: NCI-H23 lung
COLO 205 colon = tested on: COLO 205 colon
U251 CNS = tested on: U251 CNS
OVCAR-5 ovarian = tested on: OVCAR-5 ovarian
HOP-62 NSCLC = tested on: HOP-62 NSCLC
CCRF-CEM leukemia = tested on: CCRF-CEM leukemia
OVCAR-4 ovarian = tested on: OVCAR-4 ovarian
SF-268 CNS = tested on: SF-268 CNS
786-0 renal = tested on: 786-0 renal
MOLT-4 leukemia = tested on: MOLT-4 leukemia
A498 renal = tested on: A498 renal
M14 melanoma = tested on: M14 melanoma
SK-MEL-5 melanoma = tested on: SK-MEL-5 melanoma
DU-145 prostate = tested on: DU-145 prostate
NCI/ADR-RES ovarian = tested on: NCI/ADR-RES ovarian
HS 578T breast = tested on: HS 578T breast

Structure (SMILES)	TGI (UACC-62 melanoma) [µM]	TGI (NCI-H522 lung) [µM]	TGI (RPMI-8226 leukemia) [µM]	TGI (NCI-H23 lung) [µM]	TGI (COLO 205 colon) [µM]	TGI (U251 CNS) [µM]	TGI (OVCAR-5 ovarian) [µM]	TGI (HOP-62 NSCLC) [µM]	TGI (CCRF-CEM leukemia) [µM]	TGI (OVCAR-4 ovarian) [µM]	TGI (SF-268 CNS) [µM]	TGI (786-0 renal) [µM]	TGI (MOLT-4 leukemia) [µM]	TGI (A498 renal) [µM]	TGI (M14 melanoma) [µM]	TGI (SK-MEL-5 melanoma) [µM]	TGI (DU-145 prostate) [µM]	TGI (NCI/ADR-RES ovarian) [µM]	TGI (HS 578T breast) [µM]
O=C(Nc1ccc([N+](=O)[O-])cc1[N+](=O)[O-])C(=O)C(C(=O)c1ccc(Cl)c(Cl)c1)C1OC(=O)c2ccccc21 (stereo not drawn)	36	44.7	> 100	39.8	48.4	> 100	65.9	36.9	95	> 100	76.3	41.5	76.8	68.8					
CC(C)=CCC/C(C)=C/Cc1c(O)c(C)cc2c1[nH]c1cc(O)ccc12	> 25	> 25	> 25		> 25	> 25	> 25	> 25	> 25	> 25	> 25	> 25	> 25		> 25	> 25			
C=CC(=O)Nc1ccccc1CC(c1c[nH]c2ccccc12)c1c[nH]c2ccccc12	31.2	48.2	50.5	38.2	30.9			35.1	54.2		43.1	36.2	46.4		30.3	33.4			
O=NN1CCN=C1c1ccc([N+](=O)[O-])cc1	> 100	> 100	> 100	> 100	> 100	> 100	> 100	> 100		> 100	> 100	> 100	> 100		> 100	> 100			
CCOC(=O)C1=C(O)C(=O)c2ccoc2C1=O	> 100	> 100	> 100	> 100	> 100	> 100	> 100	> 100	> 100	> 100	> 100	> 100	> 100	> 100	> 100	> 100			
CNC(=O)CCCNC(=O)CCCCC(=O)N(C)C	> 100	> 100	> 100	> 100	> 100	> 100	> 100	> 100		> 100	> 100	> 100	> 100	> 100	> 100	> 100	> 100	> 100	
COC(=O)CSc1nc2[nH]c(SC)c(C(N)=O)c2c(=O)n1-c1ccccc1	> 10		> 10	> 10	> 10			> 10	> 10	> 10	> 10	> 10	> 10		> 10	> 10	> 10		
COc1ccc(NC(=O)c2oc3cc(O)ccc3c(=O)c2C)c([N+](=O)[O-])c1	> 100	> 100		> 100	> 100	> 100	> 100	> 100	> 100	> 100	> 100	> 100	> 100	> 100	> 100	> 100			
CCCCCCCCCCCCCCCCCCOCC(C[N+]1(C)CCC(O)CC1)OCC (stereo not drawn)	19.7	31	11.5	16	14.2			16.7	5.55	18	15	19.4	10.6	54.9	23.4				
O=C(O/N=c1/ccc(=O)/c(=N\OC(=O)c2ccccc2)c1=O)c1ccccc1		> 100	> 100	> 100	> 100	> 100	> 100	> 100	89.7	> 100	> 100	> 100	> 100	> 100	> 100	> 100		> 100	> 100
O=C1C[C@@H]2[C@@H](c3ccccc3)[C@@H]3C(=O)c4ccccc4NC(=O)[C@H]3[C@]2(O)c2ccccc2N1	> 100	> 100	> 100	> 100	> 100	> 100	> 100	> 100	> 100	> 100	> 100	> 100	> 100		> 100	> 100			
NCCCC(N=Cc1nc(-c2ccccc2)oc1O)C(=O)O (stereo not drawn)	> 100	> 100	> 100	> 100	> 100	> 100	> 100	> 100	> 100	> 100	> 100	> 100	> 100	> 100	> 100	> 100			
CC1(C2COC(=O)C2)SCCCS1 (stereo not drawn)	> 100	10.9		> 100	> 100			> 100	> 100	> 100	> 100	> 100	> 100		> 100	> 100			
